Experimental data reported in article PMC8402032, “Unsymmetric Cisplatin-Based Pt(IV) Conjugates Containing a PARP-1 Inhibitor Pharmacophore Tested on Malignant Pleural Mesothelioma Cell Lines” (Molecules, 2021).

How the values were obtained:
[1] = system: MSTO-211H cells; test: Cell uptake (intracellular Pt by ICP-MS); type: cell-based, human; settings: 10 μM, 4 h treatment, mean ± sd
Method: Cellular accumulation of compounds 6–9 was evaluated by means of the intracellular Pt uptake after 4 h treatment of MSTO-211H cells and expressed as ng Pt per 10^6 cells (Table 1). As expected, the Fmoc protection of 6 and 7 enhances the lipophilicity of the complexes, facilitating their cell uptake. Also the elongation of the organic linker from -(CH2)2- to -(CH2)6- increases (to a minor extent) the lipophilicity in 7 and 9 with respect to 6 and 8.
MSTO-211H cells were seeded in […] Petri dishes and challenged with the compounds and mixtures under investigations (10 μM) in complete medium. At the end of the exposure, cells were washed three times with phosphate buffered saline (PBS) and detached from the Petri dishes using 0.05% Trypsin 1X + 2% EDTA (HyClone, Thermo Fisher). The cells were harvested in fresh complete medium and an automatic cell counting device (Countess®, Life Technologies, Carlsbad, CA, USA) was used to measure the number and the mean diameter from every cell count. The harvested cells were transferred into a borosilicate glass tube and centrifuged at 1100× g rpm for 5 min at room temperature. The supernatant was carefully removed by aspiration, but about 200 μL of the supernatant was left in order to limit the cellular loss. Finally, the cellular pellets were stored at −80 °C. Platinum content determination was performed by ICP-MS (Thermo Optek X Series 2). Complete mineralization was obtained by the addition of 70% w/w HNO3 to each sample (after defrosting), followed by incubation for 1 h at 60 °C in an ultrasonic bath. Before the ICP-MS measurement, the HNO3 was diluted to a final 1% concentration. The instrumental settings were optimized to yield maximum sensitivity for platinum, and the most abundant isotopes of Pt (m/z = 195) and In (m/z = 115, used as internal standard) were quantified. The level of Pt found in cells after the treatment was normalized to the cell number and expressed as ng of Pt per 10^6 cells.

[2] = Reduction with ascorbic acid followed by RP-HPLC; type: physicochemical; settings: ascorbic acid 10 mM, HEPES 50 mM pH 7.4, 37 °C, cosolvent DMF or MeOH, 24 h
Method: To verify the activation by reduction mechanism, complexes 6–9 were challenged with the model bioreductant ascorbic acid (AA, 10 mM in water) in HEPES buffer (HEPES = 4-(2-hydroxyethyl)-1-piperazineethanesulfonic acid, 50 mM, pH = 7.4) at 37 °C. The reaction was monitored by following the RP-HPLC peaks over 24 h. The different solubility and retention times required different experimental conditions for the different compounds (cosolvent DMF or MeOH was necessary to maintain the Pt compounds in solution, >5% v/v). For these reasons, complete reduction for 8 and 9 was observed after 8 h, whereas for 6 and 7, the >85% peak area disappeared after 24 h only. […] Complexes 6–9, having very similar coordination skeletons, can be expected to behave in the same way.
The reduction of complexes with ascorbic acid was followed by monitoring of the reduction of the area of their chromatographic peaks via RP-HPLC over 24 h at 37 °C. The Pt compounds were dissolved in methanol or DMF (up to 20 mM) and diluted with different quantities of 50 mM 4-(2-hydroxyethyl)piperazine-1-ethanesulfonic acid (HEPES) buffer (pH = […]) containing 10 mM ascorbic acid. The mixtures were microfiltered to eliminate the precipitated complex. The chromatographic conditions were similar to those for the determination of lipophilicity (see Section 3.4), with different percentages of methanol depending on the complex.

[3] = system: PARP-1; test: Western blot analysis of PARP-1 expression in MSTO-211H cells; type: cell-based, human; settings: 72 h, equitoxic (IC50) concentrations, whole cell lysate
Method: It is necessary to verify how much the presence of the bulky Fmoc group might affect the recognition of the PARP catalytic domain. It is important to recall that all PARPis designed as analogues of nicotinamide must contain a primary or secondary amide. Indeed, this is the case of 6 [27]. The effects of compounds 6–9 on the expression of PARP-1 were evaluated by treating MSTO-211H cells for 72 h with equitoxic (at their IC50) concentrations of complexes, followed by Western blot analysis of whole cell lysate. […] First of all, the higher cellular uptake of 6 and 7 increases the intracellular concentration of the Pt metabolite and, in particular, of the ligands, potentially PARPis (synergistic cellular accumulation). […]
For protein analysis, cells were extracted with 1% NP-40 lysis buffer (50 mM Tris-HCl pH 8.5 containing 1% NP-40, 150 mM NaCl, 10 mM EDTA, 10 mM NaF, 10 mM Na4P2O7, and 0.4 mM Na3VO4) with freshly added protease inhibitors (10 μg mL^−1 leupeptin, 4 μg mL^−1 pepstatin, and 0.1 U mL^−1 aprotinin). […] Following SDS-PAGE, proteins were transferred to nitrocellulose, reacted with specific antibodies, and then detected with peroxidase-conjugate secondary antibodies and chemioluminescent ECL reagent. Digital images were taken with the Bio-Rad ChemiDocTM Touch Imaging System and quantified using Bio-Rad Image Lab 5.2.1. […]

- peak area disappeared after 24 h [2]: > 85%
Structure (SMILES): CC(=O)[O][Pt]([NH2])([NH2])([Cl])([Cl])[O]C(=O)CCNC(=O)c1cccc(NC(=O)OCC2c3ccccc3-c3ccccc32)c1 [Compound 6, (OC-6-44)-Acetato[3-(3-(fmoc-amino)-benzamido)-propanoato]-diammine-dichlorido-platinum(IV)]
- Pt Uptake [1]: 10.64 ± 1.77 ng Pt per 10^6 Cells
- PARP-1 expression [3]: lower expression of PARP-1 in the series
